According to ChEMBL document CHEMBL5257106, “Design, synthesis, and biological evaluation of novel HDAC inhibitors with a 3-(benzazol-2-yl)quinoxaline framework” (Bioorg Med Chem Lett, 2023):
The source made the active and inactive calls. No cut-off for these calls is given here.

Assays:
[1] = test system: HCT-116; test: Induction of cell cycle arrest in human HCT-116 assessed as increase in G2/M phase cells at 1 uM incubated for 48 hrs by flow cytometric analysis (reference value: 23.70%); assay type: functional
[2] = test system: HCT-116; test: Induction of apoptosis in human HCT-116 cells assessed as viable cells at 1 uM incubated for 24 hrs by Annexin V-FITC/PI staining based flow cytometry analysis (reference value: 93.2%); assay type: functional; details: Homo sapiens, HCT-116, read-out: Activity
[3] = Cytotoxicity against HUVEC cells assessed as inhibition of cell growth by MTT assay; details: human
[4] = test system: HCT-116; test: Induction of apoptosis in human HCT-116 cells assessed as viable cells at 0.5 uM incubated for 24 hrs by Annexin V-FITC/PI staining based flow cytometry analysis (reference value: 93.2%); assay type: functional; details: read-out: Activity
[5] = molecular target: T1, Histone deacetylase 11 (Homo sapiens, UniProt Q96DB2); test: Inhibition of HDAC11 (unknown origin)
T1 sequence (Q96DB2 whole entry): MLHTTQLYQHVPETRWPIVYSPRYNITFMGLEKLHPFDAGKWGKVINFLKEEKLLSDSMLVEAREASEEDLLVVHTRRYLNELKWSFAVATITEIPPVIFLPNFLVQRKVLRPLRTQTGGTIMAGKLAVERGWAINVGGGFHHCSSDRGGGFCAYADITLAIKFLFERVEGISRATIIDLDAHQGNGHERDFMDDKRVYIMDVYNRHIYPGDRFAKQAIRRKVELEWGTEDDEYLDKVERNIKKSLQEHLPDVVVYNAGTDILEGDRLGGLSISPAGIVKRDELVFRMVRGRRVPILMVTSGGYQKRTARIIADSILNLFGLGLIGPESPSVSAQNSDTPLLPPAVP

[6] = test system: HCT-116; test: Induction of apoptosis in human HCT-116 cells assessed as late apoptotic cells at 0.5 uM incubated for 24 hrs by Annexin V-FITC/PI staining based flow cytometry analysis (reference value: 0.323%); assay type: functional
[7] = molecular target: T2, DNA topoisomerase 1 (Homo sapiens) (UniProt P11387); test: Inhibition of topoisomerase 1 in human HCT-116 cells assessed as suppression of Topo 1 protein expression incubated for 24 hrs by Western blot analysis; assay type: cell-based; details: dose 0.5-1 µM
T2 sequence (whole entry): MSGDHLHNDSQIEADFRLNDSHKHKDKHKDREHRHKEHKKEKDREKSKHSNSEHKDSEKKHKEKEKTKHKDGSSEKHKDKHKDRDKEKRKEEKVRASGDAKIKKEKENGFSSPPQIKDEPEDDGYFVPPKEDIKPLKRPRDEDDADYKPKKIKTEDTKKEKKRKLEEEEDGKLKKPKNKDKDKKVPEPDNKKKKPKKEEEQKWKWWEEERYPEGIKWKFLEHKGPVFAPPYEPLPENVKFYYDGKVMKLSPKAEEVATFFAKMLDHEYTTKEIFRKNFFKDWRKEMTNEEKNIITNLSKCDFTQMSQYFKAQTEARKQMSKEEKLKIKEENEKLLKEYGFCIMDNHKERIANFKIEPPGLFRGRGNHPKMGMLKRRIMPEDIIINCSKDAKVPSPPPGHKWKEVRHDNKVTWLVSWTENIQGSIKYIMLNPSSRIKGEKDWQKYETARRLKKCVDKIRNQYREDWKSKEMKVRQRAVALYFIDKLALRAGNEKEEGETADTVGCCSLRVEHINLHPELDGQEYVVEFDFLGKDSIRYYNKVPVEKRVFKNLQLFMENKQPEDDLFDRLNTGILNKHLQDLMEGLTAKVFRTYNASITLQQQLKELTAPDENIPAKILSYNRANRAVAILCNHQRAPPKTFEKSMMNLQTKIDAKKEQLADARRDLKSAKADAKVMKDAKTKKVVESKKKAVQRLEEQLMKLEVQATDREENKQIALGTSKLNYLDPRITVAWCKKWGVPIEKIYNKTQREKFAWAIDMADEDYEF

[8] = test system: HCT-116; test: Potency index, ratio of SAHA IC50 to test compound IC50 for antiproliferative activity against human HCT-116 cells assessed as inhibition of cell growth by MTT assay; assay type: functional
[9] = molecular target: T3, Histone deacetylase (Homo sapiens) (UniProt Q13547+O15379+Q9UBN7+Q92769+Q9UQL6+Q8WUI4+Q9BY41+Q96DB2+P56524+Q9UKV0+Q969S8); test: Inhibition of HDAC in human HCT-116 cells assessed as increase in alpha tubulin acetylation incubated for 24 hrs by Western blot analysis; assay type: cell-based; details: dose 0.5-1 µM
[10] = test system: HCT-116; test: Induction of cell cycle arrest in human HCT-116 assessed as S phase cells at 0.5 uM incubated for 48 hrs by flow cytometric analysis (reference value: 12.79%); assay type: functional
[11] = test system: K562; test: Potency index, ratio of SAHA IC50 to test compound IC50 for antiproliferative activity against human K562 cells assessed as inhibition of cell growth by MTT assay; assay type: functional
[12] = molecular target: T2, DNA topoisomerase 1 (Homo sapiens); test: Inhibition of topoisomerase 1 (unknown origin) assessed as effect on DNA by gel electrophoresis
[13] = test system: HCT-116; test: Induction of apoptosis in human HCT-116 cells assessed as total apoptotic cells at 0.5 uM incubated for 24 hrs by Annexin V-FITC/PI staining based flow cytometry analysis (reference value: 6.823%); assay type: functional
[14] = molecular target: T3, Histone deacetylase (Homo sapiens); test: Inhibition of HDAC in human HCT-116 cells assessed as increase in histone H3 acetylation incubated for 24 hrs by Western blot analysis; assay type: cell-based; details: dose 0.5-1 µM
[15] = test system: HCT-116; test: Antiproliferative activity against human HCT-116 cells assessed as inhibition of cell growth by MTT assay; assay type: functional, cell-based
[16] = test system: RS4-11; test: Antiproliferative activity against human RS4-11 cells assessed as inhibition of cell growth by MTT assay; assay type: functional, cell-based
[17] = test system: RS4-11; test: Potency index, ratio of SAHA IC50 to test compound IC50 for antiproliferative activity against human RS4-11 cells assessed as inhibition of cell growth by MTT assay; assay type: functional
[18] = test system: HCT-116; test: Induction of ROS production in human HCT-116 cells by flow cytometric analysis; assay type: functional, cell-based; details: dose 0.5-1 µM
[19] = molecular target: Histone deacetylase 2 (Homo sapiens, UniProt Q92769); test: Inhibition of HDAC2 (unknown origin)
[20] = test system: HCT-116; test: Induction of apoptosis in human HCT-116 cells assessed as early apoptotic cells at 1 uM incubated for 24 hrs by Annexin V-FITC/PI staining based flow cytometry analysis (reference value: 6.50%); assay type: functional
[21] = test system: HCT-116; test: Induction of apoptosis in human HCT-116 cells assessed as decrease in Bcl-2 protein expression incubated for 24 hrs by Western blot analysis; assay type: functional, cell-based; details: dose 0.5-1 µM
[22] = test system: HCT-116; test: Induction of apoptosis in human HCT-116 cells assessed as necrotic cells at 0.5 uM incubated for 24 hrs by Annexin V-FITC/PI staining based flow cytometry analysis (reference value: 0.00%); assay type: functional
[23] = molecular target: T2, DNA topoisomerase 1 (Homo sapiens); test: Inhibition of topoisomerase 1 (unknown origin) mediated DNA relaxation assessed as delay in pBR322 DNA migration by gel electrophoresis assay
[24] = test system: MCF7; test: Antiproliferative activity against human MCF7 cells assessed as inhibition of cell growth by MTT assay; assay type: functional, cell-based
[25] = test system: HCT-116; test: Induction of cell cycle arrest in human HCT-116 assessed as decrease in G0/G1 phase cells at 0.5 uM incubated for 48 hrs by flow cytometric analysis (reference value: 63.51%); assay type: functional; design: scale not given: the % may be the effect or the level left
[26] = molecular target: Histone deacetylase 1 (Homo sapiens, UniProt Q13547); test: Inhibition of HDAC1 (unknown origin)
Histone deacetylase 1, sequence (Q13547 whole entry): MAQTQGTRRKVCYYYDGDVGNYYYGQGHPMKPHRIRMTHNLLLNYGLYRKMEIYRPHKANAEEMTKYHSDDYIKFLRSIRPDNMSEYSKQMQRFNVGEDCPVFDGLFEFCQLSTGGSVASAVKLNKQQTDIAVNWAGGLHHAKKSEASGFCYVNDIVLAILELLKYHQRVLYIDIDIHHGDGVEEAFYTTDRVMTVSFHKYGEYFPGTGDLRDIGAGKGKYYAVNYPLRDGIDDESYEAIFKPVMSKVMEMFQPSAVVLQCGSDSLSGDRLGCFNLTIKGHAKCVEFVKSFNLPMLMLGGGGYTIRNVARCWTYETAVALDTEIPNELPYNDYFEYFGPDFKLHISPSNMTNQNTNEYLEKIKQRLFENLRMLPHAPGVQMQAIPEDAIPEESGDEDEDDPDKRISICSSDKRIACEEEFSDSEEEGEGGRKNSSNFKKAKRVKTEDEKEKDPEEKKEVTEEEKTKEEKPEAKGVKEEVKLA

Histone deacetylase 2, sequence (Q92769 whole entry): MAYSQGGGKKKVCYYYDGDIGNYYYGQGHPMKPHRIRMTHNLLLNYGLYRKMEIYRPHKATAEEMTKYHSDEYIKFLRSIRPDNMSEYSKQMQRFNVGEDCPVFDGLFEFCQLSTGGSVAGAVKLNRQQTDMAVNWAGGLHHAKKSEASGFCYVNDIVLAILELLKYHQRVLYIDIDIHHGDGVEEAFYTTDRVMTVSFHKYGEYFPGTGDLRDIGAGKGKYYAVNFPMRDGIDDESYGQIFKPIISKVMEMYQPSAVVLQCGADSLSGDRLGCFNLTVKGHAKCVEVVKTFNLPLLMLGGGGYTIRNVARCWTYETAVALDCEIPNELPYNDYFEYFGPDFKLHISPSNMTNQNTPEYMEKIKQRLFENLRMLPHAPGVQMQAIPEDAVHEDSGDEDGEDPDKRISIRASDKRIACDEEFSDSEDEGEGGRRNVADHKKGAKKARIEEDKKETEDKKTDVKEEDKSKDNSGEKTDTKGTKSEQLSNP

IC50 [5]: 110 nM | inhibition [7]: Dose-Dependent Effect | inhibition [9]: Dose-Dependent Effect | inhibition [12]: inactive | inhibition [14]: Dose-Dependent Effect | IC50 [15]: 910 nM | IC50 [16]: 890 nM | IC50 [19]: 34.4 nM | inhibition [23]: Active | IC50 [24]: 1270 nM | IC50 [26]: 11 nM
SMILES: O=C(CCCCCCNc1nc2ccccc2nc1-c1nc2ccccc2o1)NO
Activity [1]: 39.64% | viability at 1 µM [2]: 48.1% | IC50 [3]: 19100 nM | viability at 0.5 µM [4]: 64.5% | Activity [6]: 7.21% | Ratio IC50 [8]: 6 | Activity [10]: 11.65% | Ratio IC50 [11]: 2 | Activity [13]: 35.31% | Ratio IC50 [17]: 2 | Activity [18]: Dose-Dependent Effect | Activity [20]: 34.5% | Activity [21]: Dose-Dependent Effect | Activity [22]: 0.241% | Activity [25]: 51.68%
